Experimental data from US12043599B2, “Herbicidal compounds” (SYNGENTA PARTICIPATIONS AG, priority 2018, dated 2024).

Experiments:
Assay type in all cases: in vivo
Settings in all cases: 250 g/h, evaluated after 13 days
[1] = system: Alopecurus myosuroides (ALOMY); experiment: Pre-emergence herbicidal glasshouse test, percentage damage
Outline: (§1)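 Herbicidal effect was scored 13 days after a 250 g/h spray, using bands of 0-19% (1) through 80-100% (5). Sowing preceded spraying by 1 day for pre-emergence and 8 days for post-emergence. The glasshouse ran at 24/16 °C with 14 h light.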

Avena fatua (AVEFA) [2] = experiment: as above
Outline: as §1

[3] = system: Echinochloa crus-galli (ECHCG); experiment: as above
Outline: as §1

Lolium perenne (LOLPE) [4] = experiment: as above
Outline: as §1

Setaria faberi (SETFA) [5] = experiment: as above
Outline: as §1

Setaria faberi (SETFA) [6] = experiment: Post-emergence herbicidal glasshouse test, percentage damage
Outline: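 Percentage damage was scored 13 days after treatment on a five-point scale (1=0-19% to 5=80-100%). Treatments were post-emergence sprays on 8-day-old wheat, barley and SETFA plants in a glasshouse (24/16 °C day/night, 14 h light, 65% humidity), using acetone/water 50:50 with 0.5% Tween 20 at the stated rates. Wheat additionally received cloquintocet-mexyl safener at 50 g/ha.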

[7] = system: Alopecurus myosuroides (ALOMY); experiment: as above
Outline: as §1

Avena fatua (AVEFA) [8] = experiment: as above
Outline: as §1

[9] = system: Echinochloa crus-galli (ECHCG); experiment: as above
Outline: as §1

Lolium perenne (LOLPE) [10] = experiment: as above
Outline: as §1

| Compound | ALOMY PRE percentage damage (five point scale) [1] | AVEFA PRE percentage damage (five point scale) (Avena fatua (AVEFA) [2]) | ECHCG PRE percentage damage (five point scale) [3] | LOLPE PRE percentage damage (five point scale) (Lolium perenne (LOLPE) [4]) | SETFA PRE percentage damage (five point scale) (Setaria faberi (SETFA) [5]) | SETFA POST percentage damage (five point scale) (Setaria faberi (SETFA) [6]) | ALOMY POST percentage damage (five point scale) [7] | AVEFA POST percentage damage (five point scale) (Avena fatua (AVEFA) [8]) | ECHCG POST percentage damage (five point scale) [9] | LOLPE POST percentage damage (five point scale) (Lolium perenne (LOLPE) [10]) |
| --- | --- | --- | --- | --- | --- | --- | --- | --- | --- | --- |
| CC#Cc1cc(C)c(C2C(=O)CC3(CCN(C(=O)COC4CC4)CC3)CC2=O)c(C)c1 [Compound A202] | 5 (5=80-100%) | 5 (5=80-100%) | 5 (5=80-100%) | 5 (5=80-100%) | 5 (5=80-100%) | 5 (5=80-100%) | 5 (5=80-100%) | 5 (5=80-100%) | 5 (5=80-100%) | 5 (5=80-100%) |
| CC#Cc1cc(C)c(C2=C(OC(=O)C3CC3)CC3(CCN(C(=O)C4CC4)CC3)CC2=O)c(C)c1 [Compound P1, [3-(cyclopropanecarbonyl)-9-(2,6-dimethyl-4-prop-1-ynyl-phenyl)-10-oxo-3-azaspiro[5.5]undec-8-en-8-yl] cyclopropanecarboxylate] | 5 (5=80-100%) | 5 (5=80-100%) | 5 (5=80-100%) | 5 (5=80-100%) | 5 (5=80-100%) | 5 (5=80-100%) | 5 (5=80-100%) | 5 (5=80-100%) | 5 (5=80-100%) | 5 (5=80-100%) |
| CC#Cc1cc(C)c(C2=C(OC(=O)c3ccccc3)CC3(CCN(C(=O)c4ccccc4)CC3)CC2=O)c(C)c1 [Compound P2] | 5 (5=80-100%) | 5 (5=80-100%) | 5 (5=80-100%) | 5 (5=80-100%) | 5 (5=80-100%) | 5 (5=80-100%) | 5 (5=80-100%) | 5 (5=80-100%) | 5 (5=80-100%) | 5 (5=80-100%) |
| CC#Cc1cc(C)c(C2=C(OC(=O)C3CCC3)CC3(CCN(C(=O)C4CCC4)CC3)CC2=O)c(C)c1 [Compound P3] | 5 (5=80-100%) | 5 (5=80-100%) | 5 (5=80-100%) | 5 (5=80-100%) | 5 (5=80-100%) | 5 (5=80-100%) | 5 (5=80-100%) | 5 (5=80-100%) | 5 (5=80-100%) | 5 (5=80-100%) |
| CC#Cc1cc(C)c(C2=C(OC(=O)c3ccncc3)CC3(CCN(C(=O)c4ccncc4)CC3)CC2=O)c(C)c1 [Compound P4] | 5 (5=80-100%) | 4 (4=60-79%) | 5 (5=80-100%) | 5 (5=80-100%) | 5 (5=80-100%) | 5 (5=80-100%) | 5 (5=80-100%) | 5 (5=80-100%) | 5 (5=80-100%) | 5 (5=80-100%) |
| CC#Cc1cc(C)c(C2=C(OC(=O)C(C)OC)CC3(CCN(C(=O)C(C)OC)CC3)CC2=O)c(C)c1 (stereo not shown) [Compound P6] | 5 (5=80-100%) | 5 (5=80-100%) | 5 (5=80-100%) | 5 (5=80-100%) | 5 (5=80-100%) | 5 (5=80-100%) | 5 (5=80-100%) | 5 (5=80-100%) | 5 (5=80-100%) | 5 (5=80-100%) |
| CC#Cc1cc(C)c(C2=C(OC(=O)OC)CC3(CCN(S(=O)(=O)CC)CC3)CC2=O)c(C)c1 [Compound P7, [9-(2,6-dimethyl-4-prop-1-ynyl-phenyl)-3-ethylsufonyl-10-oxo-3-azaspiro[5.5]undec-8-en-8-yl] methyl carbonate] | 5 (5=80-100%) | 5 (5=80-100%) | 5 (5=80-100%) | 5 (5=80-100%) | 5 (5=80-100%) | 5 (5=80-100%) | 5 (5=80-100%) | 5 (5=80-100%) | 5 (5=80-100%) | 5 (5=80-100%) |
| CC#Cc1cc(C)c(C2=C(OC(C)=O)CC3(CCN(C(N)=O)CC3)CC2=O)c(C)c1 [Compound P9] | 5 (5=80-100%) | 4 (4=60-79%) | 5 (5=80-100%) | 5 (5=80-100%) | 5 (5=80-100%) | 5 (5=80-100%) | 5 (5=80-100%) | 5 (5=80-100%) | 5 (5=80-100%) | 5 (5=80-100%) |
| CC#Cc1cc(C)c(C2=C(OC(=O)OC)CC3(CCN(C(=O)NC(=O)C(C)(C)C)CC3)CC2=O)c(C)c1 [Compound P10] | 5 (5=80-100%) | 5 (5=80-100%) | 5 (5=80-100%) | 5 (5=80-100%) | 5 (5=80-100%) | 5 (5=80-100%) | 5 (5=80-100%) | 5 (5=80-100%) | 5 (5=80-100%) | 5 (5=80-100%) |
| CC#Cc1cc(C)c(C2=C(OC(=O)OC)CC3(CCN(S(=O)(=O)C(F)(F)F)CC3)CC2=O)c(C)c1 [Compound P11] | 5 (5=80-100%) | 3 (3=40-59%) | 5 (5=80-100%) | 5 (5=80-100%) | 5 (5=80-100%) | 5 (5=80-100%) | 5 (5=80-100%) | 5 (5=80-100%) | 5 (5=80-100%) | 4 (4=60-79%) |
| CC#Cc1cc(C)c(C2=C(OC(C)=O)CC3(CCN(C(=O)NC(C)=O)CC3)CC2=O)c(C)c1 [Compound P12] | 4 (4=60-79%) | 4 (4=60-79%) | 5 (5=80-100%) | 5 (5=80-100%) | 5 (5=80-100%) | 5 (5=80-100%) | 5 (5=80-100%) | 5 (5=80-100%) | 5 (5=80-100%) | 5 (5=80-100%) |
| CC#Cc1cc(C)c(C2=C(OC(=O)OC)CC3(CCN(C(=O)NC(C)(C)C)CC3)CC2=O)c(C)c1 [Compound P13] | 5 (5=80-100%) | 5 (5=80-100%) | 5 (5=80-100%) | 5 (5=80-100%) | 5 (5=80-100%) | 5 (5=80-100%) | 5 (5=80-100%) | 5 (5=80-100%) | 5 (5=80-100%) | 5 (5=80-100%) |
| CC#Cc1cc(C)c(C2=C(OC(=O)OC)CC3(CCN(C(=O)NOC)CC3)CC2=O)c(C)c1 [Compound P14] | 5 (5=80-100%) | 5 (5=80-100%) | 5 (5=80-100%) | 5 (5=80-100%) | 5 (5=80-100%) | 5 (5=80-100%) | 5 (5=80-100%) | 5 (5=80-100%) | 5 (5=80-100%) | 5 (5=80-100%) |
